Patent US5225404A, “Methods of treating colon tumors with tumor-inhibiting camptothecin compounds” (New York University, priority 1989, dated 1993)

Key:
mouse leukemias = conditions: in vivo; cited from earlier work
[1] = overall toxicity in tumor-bearing mice (Example 7); type: in vivo
Source text: Another important feature of the method provided by the present invention relates to the relatively low or no apparent overall toxicity of the camptothecin compounds administered in accordance herein. Overall toxicity can be judged using various criteria. For example, loss of body weight in a subject over 10% of the initially recorded body weight (i.e., before treatment) can be considered as one sign of toxicity. In addition, loss of overall mobility and activity and signs of diarrhea or cystitis in a subject can also be interpreted as evidence of toxicity. In one of the examples which follow, the overall toxicity of the camptothecin compounds was evaluated.
The overall toxicity of the colon tumor-inhibiting camptothecin compounds was next to be evaluated at various dosages. The overall toxicity of 9-amino-20(RS)-camptothecin, 10,11-methylenedioxy-camptothecin and the sodium salt of 10,11-methylenedioxy-camptothecin was evaluated in this example as follows: tumor fragments were implanted under the skin of 5-6 mice in each group beginning on day 0. The mice were injected with one of the compounds beginning on day 7 after visible signs that malignant growth of the implanted tumor had occurred. The injections of the compound were given at predetermined doses of 10 or 12.5 mg/kg of body weight per week for a total of 3-6 weeks. Injections were daily or given two times per week. The body weights of the controls (mice with tumors, injected with placebo) and that of the drug-treated mice were taken two times each week and recorded. Overall toxicity was determined in the following way: loss of body weight after treatment in a subject of more than 10% over the initial body weight of the subject recorded at the beginning of the experiment, was considered a sign of toxicity. The mice were also monitored for their ability to regain the lost body weight. Regaining entirely its lost body weight would therefore be a sign of low toxicity in a subject. In addition, mice were monitored for their overall mobility and activity as well as for signs of diarrhea or cystitis. Mobility/activity was judged on a sliding scale of 1 to 5. That is, a score of 1 indicated good mobility/activity and a score of 5 indicated poor mobility/activity. Diarrhea and cystitis were judged on a plus/minus basis.

Structure (SMILES): CC[C@@]1(O)C(=O)OCc2c1cc1n(c2=O)Cc2cc3ccccc3nc2-1 [20(S)-camptothecin, reference compound]
- activity against mouse leukemias (mouse leukemias): effective against mouse leukemias
- toxic deaths ([1]; 50 mg/kg body weight): toxic deaths of all animals
- Overall Toxicity: body weight loss ([1]; twice/week treatment, total dose 28 mg/kg): > 15%
- Overall Toxicity ([1]; twice/week treatment, total dose 50 mg/kg): animal deaths
- Overall Toxicity ([1]; twice/week treatment, total dose 70 mg/kg): animal deaths
